# Test results taken from patent publication US8597660B2, “Therapeutic approach to neurodegenerative disorders using a TFP5-peptide” (The United States of America, as represented by the …, priority 2010, dated 2013).
# Entries after “also recorded” stand apart in the source; their conditions may differ.
# Assays:
# tau phosphorylation = assay: Aβ-induced tau phosphorylation in cortical neurons, Western blot; format: cell-based, rat; details: Aβ 6 h
# Method: Primary cultures of rat cortical neurons were prepared from E-18 rat fetuses as described previously (Zheng et al., J Biol Chem 278(26), 24026-24032, 2003). After 7 days, cells were infected independently or co-infected with empty vector (EV), the constructs of P5, P25, P35, wild-type Cdk5 and dominant negative Cdk5 (changing Lys33 to Thr33) using the Adenoviral vector (pAdTrack-CMV) packaging system as described above. […] The cells were fixed for immunocytochemistry analyses (ICC) or lysed with lysis buffer for immunoprecipitation and Western blot analyses. Cortical neuron cultures were prepared and plated on the cover slips as described. Human embryo kidney cells (HEK293) were grown as described previously (Zheng et al., Eur J Biochem 269(18), 4427-4434, 2002). In these studies HEK293 cells on day 1, or neurons on day 5, were transfected with or without Myc-P5-GFP using Lipofectamine 2000 following the manufacturer's instructions.
# (§1) Western blot analysis was performed as previously described (Zheng et al., Eur J Biochem 269(18), 4427-4434, 2002). In brief, an equal amount of total protein (20 μg/lane) was resolved on a 4-20% SDS polyacrylamide gel and blotted onto a polyvinylidene difluoride membrane. This membrane was incubated in blocking buffer containing 20 mM Tris-HCl (pH 7.4), 150 mM NaCl, and 0.1% (vol/vol) Tween 20 (TTBS) plus 5% dry milk (w/v) for 1 hour at room temperature followed by incubation overnight at 4° C. in primary antibodies (see antibodies). The membranes were then washed four times in TTBS (5 minutes/each) followed by incubation in secondary antibody (goat-antimouse or goat anti-rabbit IgG (H+L)-horseradish peroxidase (HRP) conjugate at a dilution of 1:3000) for 1 hour at room temperature. Western blots were analyzed using the Amersham Enhanced Chemiluminescence (ECL) kit following the manufacturer's instructions (GE Healthcare, Piscataway, N.J.).
# Amyloid plaques and neurofibrillary tangles, pathological hallmarks of several neurodegenerative disorders, are linked to deregulated Cdk5 and neuronal death. According to one model, β amyloid, being toxic, may evoke abnormal calcium influx into neurons which activates calpains. […] Hyperactivation of Cdk5, leads to the aberrant phosphorylation of tau and neurofilaments in a number of neurodegenerative diseases including AD and ALS. For example, primary cortical neurons, when treated with Aβ1-42 are induced to form Cdk5/P25 complexes, hyperactive Cdk5 activity, hyperphosphorylation of tau, and neuronal apoptosis. To determine whether P5 will inhibit endogenous tau phosphorylation induced by Aβ treatment in cortical neurons, 7 day old cortical neurons, infected with empty vector (EV) or with P5 were treated with Aβ for 6 hours, lysed and prepared for Cdk5 immunoprecipitation and kinase assay. Aβ treatment causes an approximate 3-fold increase in endogenous Cdk5 activity as visualized by histone H1 phosphorylation (FIG. 4A, panel 5, lane 2; FIG. 4B).
# ; FIG. 4D). […] Tau antibodies p-Ser404, PHF antibody AT180 (recognizes p-Thr231) and p-Ser422 antibodies were used to observe whether P5 affects other tau phosphorylation residues (FIGS. 4E, 4F). […]. Tau 5 recognizes total tau, nonphosphorylated as well as phosphorylated.
# cleaved caspase-3 = assay: Cleaved caspase-3 Western blot in Aβ-treated cortical neurons; format: cell-based, rat; details: Aβ 6 h; P5 infection or roscovitine
# Method: as §1
# To determine whether P5 inhibited neuronal apoptosis induced by Aβ, primary cortical neurons (5 days in culture (DIC)) were transfected with P5-GFP using Lipofectamine 2000. After 24 hours, cells were exposed to Aβ for 6 hours. The neurons were fixed and subjected to TUNEL staining, while P5 was visualized by (green fluorescent protein) GFP. […] The data are quantified in FIG. 5B. […] The data are quantified in FIG. 5D.
# Cdk5/P35 = Cdk5/P35 (Homo sapiens, UniProt Q00535); assay: In vitro kinase (pad) assay of active Cdk5/P35 with histone H1 as substrate; format: biochemical; details: 0.7 μM P5
# Method: Kinase assays were performed as previously described (Veeranna, et al., J Neurosci 18(11), 4008-4021, 1998). Briefly, 7 days in culture (7 DIC) primary rat cortical neurons were infected with P25, P35, Cdk5 wild-type, dominant negative-Cdk5 and P5 using the lentiviral gene delivery as described earlier. Cdk5 was immunoprecipitated using the polyclonal C8 antibody overnight at 4° C. and immunoglobulin isolated using Protein A sepharose beads for 2 hours at 4° C. Immunoprecipitates were washed three times with lysis buffer and then once with 1× kinase buffer containing 20 mM Tris-Cl pH 7.4, 1 mM EDTA, 1 mM EGTA, 10 mM MgCl2, 10 mM sodium fluoride and 1 mM sodium orthovanadate. Endogenous Cdks were immunoprecipitated from HEK 293 cells using their respective antibodies and treated as above. […]
# In a dose-dependent kinase assay the effective inhibitory concentration of P5 for both the Cdk5/P25 and Cdk5/P35 complexes was evaluated. […]
# P5, a 24 amino acid peptide derived from Cdk5 regulator p35, was modified by conjugating it with TAT PTD at the C-terminal end and with FITC (using a GGG linker) at the N-terminus to produce a fluorescent (FITC-labeled) TFP5 (SEQ ID NO: 2) peptide. In a dose-dependent kinase assay the effective inhibitory concentration of TFP5 for both the Cdk5/P25 and Cdk5/P35 complexes was evaluated. […]
# Cdk5/P35, sequence (Q00535 whole entry, species assumed): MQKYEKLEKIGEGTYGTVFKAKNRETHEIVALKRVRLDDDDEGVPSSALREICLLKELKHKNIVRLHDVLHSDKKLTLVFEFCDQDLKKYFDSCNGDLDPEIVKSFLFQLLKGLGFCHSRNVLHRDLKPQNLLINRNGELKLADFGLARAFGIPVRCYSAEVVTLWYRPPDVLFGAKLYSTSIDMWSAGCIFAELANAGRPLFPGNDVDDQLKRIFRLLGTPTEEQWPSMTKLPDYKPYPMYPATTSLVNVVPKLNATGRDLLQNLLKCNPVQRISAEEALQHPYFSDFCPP
substance,measurement,setting,value
P5: 24 residue peptide derived from Cdk5 activator P35 (K254-A277 of SEQ ID NO: 16); Cdk5 inhibitory peptide (KEAFWDRCLSVINLMSSKMLQINA; listed as Homo sapiens),Aβ-induced tau phosphorylation at Ser404,tau phosphorylation; P5 infection,reduces phosphorylation at Thr 231 and Ser404; also recorded: significantly inhibits tau phosphorylation at S404 and T231
same,Aβ-induced tau phosphorylation at Thr231 (AT180),tau phosphorylation; P5 infection,reduces phosphorylation at Thr 231 and Ser404; also recorded: significantly inhibits tau phosphorylation at S404 and T231
same,Aβ-induced tau phosphorylation at Ser422,tau phosphorylation; P5 infection or roscovitine,"only a modest affect on Ser 422; also recorded: slight decrease of tau phosphorylation at the Ser422 site, is not significant"
same,Aβ-induced tau phosphorylation detected by AT8 and p-Ser199/202 antibodies,tau phosphorylation; P5 infection or roscovitine,baseline levels of tau phosphorylation; also recorded: restoring it to basal levels
same,Cleaved caspase-3 expression,cleaved caspase-3,marked reduction in cleaved caspase 3 expression; also recorded: reduced to control EV levels; also recorded: significantly rescued cortical neurons from apoptosis
same,Inhibition of Cdk5/P35 activity,Cdk5/P35,approximately 70%
